Measurements from PubChem BioAssay (NCI).
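Protocol summary: plate cells (96-well), add compound at 5 concentrations, incubate 48 h, interpolate endpoints linearly. Definition used: TGI = concentration required for complete inhibition of growth.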

Experiments:
Test in all cases: growth of human tumour cells (NCI), 48 h
786-0 renal = tested on: 786-0 renal
A549 NSCLC = tested on: A549 NSCLC
ACHN renal = tested on: ACHN renal
BT-549 breast = tested on: BT-549 breast
CAKI-1 renal = tested on: CAKI-1 renal
CCRF-CEM leukemia = tested on: CCRF-CEM leukemia
COLO 205 colon = tested on: COLO 205 colon
DU-145 prostate = tested on: DU-145 prostate
EKVX NSCLC = tested on: EKVX NSCLC
HCC-2998 colon = tested on: HCC-2998 colon
HCT-116 colon = tested on: HCT-116 colon
HCT-15 colon = tested on: HCT-15 colon
HL-60(TB) leukemia = tested on: HL-60(TB) leukemia
HOP-62 NSCLC = tested on: HOP-62 NSCLC
HOP-92 NSCLC = tested on: HOP-92 NSCLC
HS 578T breast = tested on: HS 578T breast
HT29 colon = tested on: HT29 colon
IGROV1 ovarian = tested on: IGROV1 ovarian
K-562 leukemia = tested on: K-562 leukemia
KM12 colon = tested on: KM12 colon
LOX IMVI melanoma = tested on: LOX IMVI melanoma
M14 melanoma = tested on: M14 melanoma
MALME-3M melanoma = tested on: MALME-3M melanoma
MCF7 breast = tested on: MCF7 breast
MDA-MB-231 breast = tested on: MDA-MB-231 breast
MDA-MB-435 = tested on: MDA-MB-435
MDA-N = tested on: MDA-N
MOLT-4 leukemia = tested on: MOLT-4 leukemia
NCI-H226 lung = tested on: NCI-H226 lung
NCI-H23 lung = tested on: NCI-H23 lung
NCI-H522 lung = tested on: NCI-H522 lung
NCI/ADR-RES ovarian = tested on: NCI/ADR-RES ovarian
OVCAR-3 ovarian = tested on: OVCAR-3 ovarian
OVCAR-4 ovarian = tested on: OVCAR-4 ovarian
OVCAR-5 ovarian = tested on: OVCAR-5 ovarian
OVCAR-8 ovarian = tested on: OVCAR-8 ovarian
PC-3 prostate = tested on: PC-3 prostate
RPMI-8226 leukemia = tested on: RPMI-8226 leukemia
RXF 393 renal = tested on: RXF 393 renal
SF-268 CNS = tested on: SF-268 CNS
SF-295 CNS = tested on: SF-295 CNS
SF-539 CNS = tested on: SF-539 CNS
SK-MEL-2 melanoma = tested on: SK-MEL-2 melanoma
SK-MEL-28 melanoma = tested on: SK-MEL-28 melanoma
SK-MEL-5 melanoma = tested on: SK-MEL-5 melanoma
SK-OV-3 ovarian = tested on: SK-OV-3 ovarian
SN12C renal = tested on: SN12C renal
SNB-19 CNS = tested on: SNB-19 CNS
SNB-75 CNS = tested on: SNB-75 CNS
SR leukemia = tested on: SR leukemia
SW-620 colon = tested on: SW-620 colon
T-47D breast = tested on: T-47D breast
TK-10 renal = tested on: TK-10 renal
U251 CNS = tested on: U251 CNS
UACC-257 melanoma = tested on: UACC-257 melanoma
UACC-62 melanoma = tested on: UACC-62 melanoma
UO-31 renal = tested on: UO-31 renal

Compound `CC12CCC(C(=O)n3c1nc1ccccc13)C(C)(C)O2` (stereo unspecified) has a TGI (786-0 renal) greater than 100 µM, a TGI (A549 NSCLC) greater than 100 µM and a TGI (ACHN renal) greater than 100 µM. The TGI (BT-549 breast) was greater than 100 µM, the TGI (CAKI-1 renal) was greater than 100 µM and the TGI (CCRF-CEM leukemia) was greater than 100 µM. The TGI (COLO 205 colon) was greater than 100 µM, the TGI (DU-145 prostate) was greater than 100 µM and the TGI (EKVX NSCLC) was greater than 100 µM. The TGI (HCC-2998 colon) was greater than 100 µM, the TGI (HCT-116 colon) was greater than 100 µM and the TGI (HCT-15 colon) was greater than 100 µM. The TGI (HL-60(TB) leukemia) was greater than 100 µM, the TGI (HOP-62 NSCLC) was greater than 100 µM and the TGI (HOP-92 NSCLC) was greater than 100 µM. It also gave a TGI (HS 578T breast) greater than 100 µM, a TGI (HT29 colon) greater than 100 µM and a TGI (IGROV1 ovarian) greater than 100 µM. The TGI (K-562 leukemia) was greater than 100 µM, the TGI (KM12 colon) was greater than 100 µM and the TGI (LOX IMVI melanoma) was greater than 100 µM. For the same compound, the TGI (M14 melanoma) was greater than 100 µM, the TGI (MALME-3M melanoma) was greater than 100 µM and the TGI (MCF7 breast) was greater than 100 µM. The TGI (MDA-MB-231 breast) was greater than 100 µM, the TGI (MDA-MB-435) was greater than 100 µM and the TGI (MDA-N) was greater than 100 µM. The TGI (MOLT-4 leukemia) was greater than 100 µM, the TGI (NCI-H226 lung) was greater than 100 µM and the TGI (NCI-H23 lung) was greater than 100 µM. For the same compound, the TGI (NCI-H522 lung) was greater than 100 µM, the TGI (NCI/ADR-RES ovarian) was greater than 100 µM and the TGI (OVCAR-3 ovarian) was greater than 100 µM. The TGI (OVCAR-4 ovarian) was greater than 100 µM, the TGI (OVCAR-5 ovarian) was greater than 100 µM and the TGI (OVCAR-8 ovarian) was greater than 100 µM. For the same compound, the TGI (PC-3 prostate) was greater than 100 µM, the TGI (RPMI-8226 leukemia) was greater than 100 µM and the TGI (RXF 393 renal) was greater than 100 µM. It also gave a TGI (SF-268 CNS) greater than 100 µM, a TGI (SF-295 CNS) greater than 100 µM and a TGI (SF-539 CNS) greater than 100 µM. It also gave a TGI (SK-MEL-2 melanoma) greater than 100 µM, a TGI (SK-MEL-28 melanoma) greater than 100 µM and a TGI (SK-MEL-5 melanoma) greater than 100 µM. It also gave a TGI (SK-OV-3 ovarian) greater than 100 µM, a TGI (SN12C renal) greater than 100 µM and a TGI (SNB-19 CNS) greater than 100 µM. The TGI (SNB-75 CNS) was greater than 100 µM, the TGI (SR leukemia) was greater than 100 µM and the TGI (SW-620 colon) was greater than 100 µM. It also gave a TGI (T-47D breast) greater than 100 µM, a TGI (TK-10 renal) greater than 100 µM and a TGI (U251 CNS) greater than 100 µM. It also gave a TGI (UACC-257 melanoma) greater than 100 µM, a TGI (UACC-62 melanoma) greater than 100 µM and a TGI (UO-31 renal) greater than 100 µM.

For `COC(=O)CNC(=O)c1cc(C)cc2c1Oc1c(cc(C)cc1C(=O)NCC(=O)OC)S2`, the TGI (786-0 renal) was greater than 100 µM, the TGI (A549 NSCLC) was greater than 100 µM and the TGI (ACHN renal) was 58.4 µM. For the same compound, the TGI (BT-549 breast) was greater than 100 µM, the TGI (CAKI-1 renal) was greater than 100 µM and the TGI (CCRF-CEM leukemia) was greater than 100 µM. For the same compound, the TGI (COLO 205 colon) was 70.9 µM, the TGI (DU-145 prostate) was greater than 100 µM and the TGI (EKVX NSCLC) was greater than 100 µM. For the same compound, the TGI (HCC-2998 colon) was greater than 100 µM, the TGI (HCT-116 colon) was greater than 100 µM and the TGI (HCT-15 colon) was greater than 100 µM. For the same compound, the TGI (HOP-62 NSCLC) was greater than 100 µM, the TGI (HOP-92 NSCLC) was 57.2 µM and the TGI (HS 578T breast) was greater than 100 µM. The TGI (HT29 colon) was greater than 100 µM, the TGI (IGROV1 ovarian) was greater than 100 µM and the TGI (K-562 leukemia) was greater than 100 µM. The TGI (KM12 colon) was greater than 100 µM, the TGI (LOX IMVI melanoma) was greater than 100 µM and the TGI (M14 melanoma) was greater than 100 µM. It also gave a TGI (MALME-3M melanoma) of 40.7 µM, a TGI (MCF7 breast) greater than 100 µM and a TGI (MDA-MB-231 breast) greater than 100 µM. It also gave a TGI (MDA-MB-435) greater than 100 µM, a TGI (MDA-N) greater than 100 µM and a TGI (MOLT-4 leukemia) greater than 100 µM. The TGI (NCI-H226 lung) was greater than 100 µM, the TGI (NCI-H23 lung) was greater than 100 µM and the TGI (NCI-H522 lung) was greater than 100 µM. It also gave a TGI (NCI/ADR-RES ovarian) greater than 100 µM, a TGI (OVCAR-3 ovarian) greater than 100 µM and a TGI (OVCAR-4 ovarian) greater than 100 µM. For the same compound, the TGI (OVCAR-5 ovarian) was greater than 100 µM, the TGI (OVCAR-8 ovarian) was greater than 100 µM and the TGI (PC-3 prostate) was greater than 100 µM. For the same compound, the TGI (RPMI-8226 leukemia) was greater than 100 µM, the TGI (RXF 393 renal) was 69.4 µM and the TGI (SF-268 CNS) was greater than 100 µM. For the same compound, the TGI (SF-295 CNS) was greater than 100 µM, the TGI (SF-539 CNS) was 43.7 µM and the TGI (SK-MEL-2 melanoma) was greater than 100 µM. For the same compound, the TGI (SK-MEL-28 melanoma) was greater than 100 µM, the TGI (SK-OV-3 ovarian) was greater than 100 µM and the TGI (SN12C renal) was greater than 100 µM. For the same compound, the TGI (SNB-19 CNS) was greater than 100 µM, the TGI (SNB-75 CNS) was greater than 100 µM and the TGI (SR leukemia) was greater than 100 µM. It also gave a TGI (SW-620 colon) greater than 100 µM, a TGI (T-47D breast) greater than 100 µM and a TGI (TK-10 renal) greater than 100 µM. It also gave a TGI (U251 CNS) greater than 100 µM, a TGI (UACC-257 melanoma) greater than 100 µM and a TGI (UACC-62 melanoma) greater than 100 µM.
